Results: patent US11827628B2, “Compositions and methods for inhibition of the JAK pathway” (Rigel Pharmaceuticals, Inc., priority 2005, dated 2023)
Read-outs that look alike come from different tables or passages of the source.

Experiments:
[1] = test system: IL-4 stimulated expression of CD23 in human Ramos B cells (JAK-1 and JAK-3); test: Assay for Ramos B-Cell Line Stimulated with IL-4 (CD23 upregulation, FACS); format: cell-based; conditions: Ramos B-cell line stimulated with IL-4, CD23 expression by FACS, read-out: IC50, Example 41
Procedure, shortened: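 Read-out: anti-CD23-PE flow cytometry on Ramos B cells, giving IC50. Cells (5×10^4 per point, RPMI + 5% serum) get compound or DMSO for 1 h at 37 °C, then IL-4 50 units/mL final for 20-24 h.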

Primary human T-cells = test: Primary Human T-Cell Proliferation Assay Stimulated with IL-2 (CellTiter-Glo); format: cell-based; conditions: read-out: IC50, Example 42
Procedure, shortened: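 Peripheral blood T-cells pre-activated with anti-CD3/anti-CD28 and IL-2 were washed free of IL-2, then cultured with compound plus IL-2 for 72 hours at 37° C, duplicate wells. Viability read as ATP by CellTiter-Glo luminescence; IC50 reported.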

[2] = primary human T-cell proliferation stimulated with IL-2

Compound	IC50 [1]	IC50 (Primary human T-cells; [2])	IC50 (Primary human T-cells; primary human T-cells stimulated with IL-2, proliferation)	IC50 ([1]; sodium salt)
COc1cc(Nc2ncc(F)c(Nc3ccc(OC(C)C#N)c(C)c3)n2)ccc1S(N)(=O)=O (racemic) [Compound I-64, Racemic N2-(4-Aminosulfonyl-3-methoxy)phenyl-N4-[4-(1-cyano)ethoxy-3-methyl]phenyl-5-fluoro-2,4-pyrimidinediamine]	0.113 µM	1.88 µM	–	–
Cc1cc(Nc2nc(Nc3ccc(C)c(S(N)(=O)=O)c3)ncc2F)ccc1OCC(N)=O [Compound I-95, N4-(4-Aminocarbonylmethoxy-3-methyl)phenyl-N2-(3-aminosulfonyl-4-methyl)phenyl-5-fluoro-2,4-pyrimidinediamine]	0.118 µM	0.325 µM	–	–
Cc1cc(Nc2nc(Nc3cccc(S(N)(=O)=O)c3)ncc2F)ccc1OC(C)C#N (racemic) [Compound I-61, Racemic N2-(3-Aminosulfonyl)phenyl-N4-[4-(1-cyano)ethoxy-3-methyl]phenyl-5-fluoro-2,4-pyrimidinediamine]	0.0459 µM	0.123 µM	–	–
CC(C#N)Oc1ccc(Nc2nc(Nc3ccc(S(N)(=O)=O)cc3)ncc2F)cc1 (racemic) [Compound I-66, Racemic N2-(4-Aminosulfonyl)phenyl-N4-[4-(1-cyano)ethoxy]phenyl-5-fluoro-2,4-pyrimidinediamine]	0.103 µM	0.287 µM	–	–
Cc1ccc(Nc2ncc(F)c(Nc3ccc(NC(=O)CC#N)c(Cl)c3)n2)cc1S(N)(=O)=O [Compound I-83, N2-(3-Aminosulfonyl-4-methylphenyl)-N4-[3-chloro-4-(N-cyanoacetyl)aminophneyl]-5-fluoro-2,4-pyrimidinediamine]	0.158 µM	1.76 µM	–	–
Cc1ccc(Nc2ncc(F)c(Nc3ccc(Cn4ccnc4)cc3)n2)cc1S(N)(=O)=O [III-82, N2-(3-Aminosulfonyl-4-methylphenyl)-5-fluoro-N4-[4-(1-imidazolylmethyl)phenyl]-2,4-pyrimidinediamine]	0.127 µM	0.16 µM	–	–
CC(C#N)Oc1ccc(Nc2nc(Nc3ccc(F)c(S(N)(=O)=O)c3)ncc2F)cc1 (racemic) [Compound I-68, Racemic N2-(3-Aminosulfonyl-4-fluoro)phenyl-N4-[4-(1-cyano)ethoxy]phenyl-5-fluoro-2,4-pyrimidinediamine]	0.187 µM	0.482 µM	–	–
N#CCOc1cccc(Nc2nc(Nc3cccc(S(N)(=O)=O)c3)ncc2F)c1 [Compound I-4, N2-(3-Aminosulfonyl)phenyl-N4-(3-cyanomethoxy)phenyl-5-fluoro-2,4-pyrimidinediamine]	0.0491 µM	0.178 µM	–	–
Cc1ccc(Nc2ncc(F)c(Nc3ccc(OC(C)C#N)cc3)n2)cc1S(N)(=O)=O (racemic) [Compound I-67, Racemic N2-(3-Aminosulfonyl-4-methyl)phenyl-N4-[4-(1-cyano)ethoxy]phenyl-5-fluoro-2,4-pyrimidinediamine]	0.0332 µM	0.157 µM	–	–
NS(=O)(=O)c1cccc(Nc2ncc(F)c(Nc3ccc(Cn4ccnc4)cc3)n2)c1 [III-81, N2-(3-Aminosulfonylphenyl)-5-fluoro-N4-[4-(1-imidazolylmethyl)phenyl]-2,4-pyrimidinediamine]	0.18 µM	0.204 µM	–	–
CC(C#N)Oc1ccc(Nc2nc(Nc3cccc(S(N)(=O)=O)c3)ncc2F)cc1 (racemic) [Compound I-65, Racemic N2-(3-Aminosulfonyl)phenyl-N4-[4-(1-cyano)ethoxy]phenyl-5-fluoro-2,4-pyrimidinediamine]	0.0965 µM	0.0473 µM	–	–
Cc1cc(Nc2nc(Nc3ccc(F)c(S(N)(=O)=O)c3)ncc2F)ccc1OC(C)C#N (racemic) [Compound I-69, Racemic N2-(3-Aminosulfonyl-4-fluoro)phenyl-N4-[4-(1-cyano)ethoxy-3-methyl]phenyl-5-fluoro-2,4-pyrimidinediamine]	0.118 µM	1.03 µM	–	–
Cc1ccc(Nc2ncc(F)c(Nc3ccc(OC(C)(C)C#N)cc3)n2)cc1S(N)(=O)=O [Compound I-73, N2-(3-Aminosulfonyl-4-methyl)phenyl-N4-[4-(1-cyano-1-methyl)ethoxy]phenyl-5-fluoro-2,4-pyrimidinediamine]	0.12 µM	0.728 µM	–	–
Cc1ccc(Nc2ncc(F)c(Nc3ccc4c(c3)CCN4S(C)(=O)=O)n2)cc1S(N)(=O)=O [VII-61, N2-(3-Aminosulfonyl-4-methylphenyl)-5-fluoro-N4-[4-(1-methylsulfonyl)indolin-5-yl]-2,4-pyrimidinediamine]	–	–	0.14 µM	–
Cc1cnc(Nc2ccc(S(N)(=O)=O)cc2)nc1Nc1ccc(OCC#N)cc1 [Compound I-57, N2-(4-Aminosulfonylphenyl)-N4-(4-cyanomethoxyphenyl-5)-methyl-2,4-pyrimidinediamine]	0.0216 µM	0.0531 µM	–	–
Cc1cc(Nc2nc(Nc3ccc(C)c(S(N)(=O)=O)c3)ncc2F)ccc1OC(C)C#N (racemic) [Compound I-62, Racemic N2-(3-Aminosulfonyl-4-methyl)phenyl-N4-[4-(1-cyano)ethoxy-3-methyl]phenyl-5-fluoro-2,4-pyrimidinediamine]	0.101 µM	0.376 µM	–	–
Cc1cc(Nc2nc(Nc3ccc(F)c(S(N)(=O)=O)c3)ncc2F)ccc1OCC#N [Compound I-34, N2-(3-Aminosulfonyl-4-fluoro)phenyl-N4-(4-cyanomethoxy-3-methyl)phenyl-5-fluoro-2,4-pyrimidinediamine]	0.0623 µM	0.806 µM	–	–
CNS(=O)(=O)c1cc(Nc2ncc(F)c(NCCc3ccc(-c4ccncc4)cc3)n2)ccc1C [III-78, 5-Fluoro-N2-[3-N-(methyl)aminosulfonyl-4-methylphenyl]-N4-[4-(4-pyridinyl)phenethyl]-2,4-pyrimidinediamine]	0.275 µM	0.204 µM	–	–
Cc1ccc(Nc2ncc(F)c(Nc3ccc(OCC(N)=O)cc3)n2)cc1S(N)(=O)=O [Compound I-94, N4-(4-Aminocarbonylmethoxy)phenyl-N2-(3-aminosulfonyl-4-methyl)phenyl-5-fluoro-2,4-pyrimidinediamine]	0.345 µM	0.563 µM	–	–
CC(C)(C#N)Oc1ccc(Nc2nc(Nc3cccc(S(N)(=O)=O)c3)ncc2F)cc1 [Compound I-76, N2-(3-Aminosulfonyl)phenyl-N4-[4-(1-cyano-1-methyl)ethoxy]phenyl-5-fluoro-2,4-pyrimidinediamine]	0.101 µM	0.196 µM	–	–
Cc1cc(Nc2nc(Nc3cccc(S(N)(=O)=O)c3)ncc2F)ccc1OCC(N)=O [Compound I-92, N4-(4-Aminocarbonylmethoxy-3-methyl)phenyl-N2-(3-aminosulfonyl)phenyl-5-fluoro-2,4-pyrimidinediamine]	0.166 µM	0.543 µM	–	–
Cc1ccc(Nc2ncc(F)c(Nc3cc(C)c(OC(C)C#N)c(C)c3)n2)cc1S(N)(=O)=O (racemic) [Compound I-72, Racemic N2-(3-Aminosulfonyl-4-methyl)phenyl-N4-[4-(1-cyano)ethoxy-3,5-dimethyl]phenyl-5-fluoro-2,4-pyrimidinediamine]	0.0524 µM	0.303 µM	–	–
Cc1cc(Nc2nc(Nc3cccc(S(N)(=O)=O)c3)ncc2F)cc(C)c1OC(C)C#N (racemic) [Compound I-71, Racemic N2-(3-Aminosulfonyl)phenyl-N4-[4-(1-cyano)ethoxy-3,5-dimethyl]phenyl-5-fluoro-2,4-pyrimidinediamine]	0.0618 µM	0.136 µM	–	–
CC(C)(C#N)Oc1ccc(Nc2nc(Nc3ccc(F)c(S(N)(=O)=O)c3)ncc2F)cc1 [Compound I-74, N2-(3-Aminosulfonyl-4-fluoro)phenyl-N4-[4-(1-cyano-1-methyl)ethoxy]phenyl-5-fluoro-2,4-pyrimidinediamine]	0.245 µM	1.5 µM	–	–
Cc1cc(Nc2nc(Nc3ccc(S(N)(=O)=O)cc3)ncc2F)cc(C)c1OC(C)C#N (racemic) [Compound I-63, Racemic N2-(4-Aminosulfonyl)phenyl-N4-[4-(1-cyano)ethoxy-3,5-dimethyl]phenyl-5-fluoro-2,4-pyrimidinediamine]	0.169 µM	1.31 µM	–	–
CCC(=O)NS(=O)(=O)c1cccc(Nc2ncc(F)c(Nc3ccc(OCc4nc(C)no4)cc3)n2)c1 [Compound I-273]	–	0.193 µM	–	0.478 µM
Cc1ccc(Nc2ncc(F)c(Nc3cccc(OCC(N)=O)c3)n2)cc1S(N)(=O)=O [Compound I-90, N4-(3-Aminocarbonylmethoxy)phenyl-N2-(3-aminosulfonyl-4-methyl)phenyl-5-fluoro-2,4-pyrimidinediamine]	0.401 µM	2.19 µM	–	–
Cc1ccc(Nc2ncc(F)c(Nc3ccc(OCC#N)cc3)n2)cc1S(=O)(=O)NC(=O)C(C)C [Compound I-37, N4-(4-Cyanomethyleneoxy)phenyl-5-fluoro-N2-(3-isobutyrylaminosulfonyl-4-methyl)phenyl-2,4-pyrimidinediamine]	0.499 µM	3.68 µM	–	–
Cc1cc(Nc2nc(Nc3ccc(F)c(S(N)(=O)=O)c3)ncc2F)cc(C)c1OCC#N [Compound I-35, N2-(3-Aminosulfonyl-4-fluoro)phenyl-N4-(4-cyanomethoxy-3,5-dimethyl)phenyl-5-fluoro-2,4-pyrimidinediamine]	0.047 µM	1.13 µM	–	–
CNS(=O)(=O)c1cc(Nc2ncc(F)c(Nc3ccc(Cn4ccnc4)cc3)n2)ccc1C [III-83, 5-Fluoro-N2-[3-(N-methylaminosulfony)-4-methylphenyl]-5-fluoro-N4-[4-(1-imidazolylmethyl)phenyl]-2,4-pyrimidinediamine]	0.0987 µM	0.0962 µM	–	–
